Measurements as given in ChEMBL document CHEMBL1201862, “PubChem BioAssay data set” (2004).
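Grown in 96-well plates, cells were treated for 48 hours with each compound at five concentrations. Insufficient inhibition: endpoint recorded as highest concentration tested. GI50 is the concentration that inhibits growth by half.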 The source made the active and inactive calls. Rule as the data show it: active = GI50 up to about 1.1 µM and inactive = higher.

What was measured:
Experiment in all cases: inhibition of tumour cell growth, NCI panel, 48 h
[1] = test system: UO-31
[2] = test system: COLO 205
[3] = test system: Malme-3M
[4] = test system: DU-145
[5] = test system: 786-0
[6] = test system: K562
[7] = test system: HCC 2998
[8] = test system: HCT-15
[9] = test system: OVCAR-4
[10] = test system: CAKI-1
[11] = test system: MCF7
[12] = test system: A549
[13] = test system: SF-268
[14] = test system: HOP-62
[15] = test system: SN12C
[16] = test system: IGROV-1
[17] = test system: NCI/ADR-RES
[18] = test system: EKVX
[19] = test system: NCI-H226
[20] = test system: PC-3
[21] = test system: RPMI-8226
[22] = test system: HCT-116
[23] = test system: SNB-75
[24] = test system: SNB-19
[25] = test system: HOP-92
[26] = test system: SK-MEL-28
[27] = test system: RXF 393
[28] = test system: U-251
[29] = test system: HT-29
[30] = test system: SF-295
[31] = test system: M14
[32] = test system: UACC-257
[33] = test system: A498
[34] = test system: SK-OV-3
[35] = test system: MDA-N
[36] = test system: NCI-H460
[37] = test system: NCI-H522
[38] = test system: SW-620
[39] = test system: OVCAR-5
[40] = test system: BT-549
[41] = test system: ACHN
[42] = test system: SK-MEL-2
[43] = test system: NCI-H23
[44] = test system: TK-10
[45] = test system: KM12
[46] = test system: MOLT-4
[47] = test system: UACC-62
[48] = test system: SK-MEL-5
[49] = test system: MDA-MB-435
[50] = test system: MDA-MB-231
[51] = test system: LOX IMVI
[52] = test system: Hs-578T
[53] = test system: OVCAR-3
[54] = test system: CCRF-CEM
[55] = test system: HL-60
[56] = test system: SF-539

In the case of Oc1c(NCn2nc(CCCCCCCCc3nn(CNc4ccc5ccccc5c4O)c(=S)o3)oc2=S)ccc2ccccc12, the GI50 [1] was 98.2 µM (inactive), the GI50 [2] was > 100 µM (inactive) and the GI50 [3] was 75.2 µM (inactive). For the same molecule, the GI50 [4] was > 100 µM (inactive), the GI50 [5] was 63.2 µM (inactive) and the GI50 [6] was > 100 µM (inactive). For the same molecule, the GI50 [7] was > 100 µM (inactive), the GI50 [8] was 35.6 µM and the GI50 [9] was 76.2 µM (inactive). For the same molecule, the GI50 [10] was > 100 µM (inactive), the GI50 [11] was 67.6 µM (inactive) and the GI50 [12] was 44.4 µM (inactive). For the same molecule, the GI50 [13] was > 100 µM (inactive), the GI50 [14] was 94.2 µM (inactive) and the GI50 [15] was > 100 µM (inactive). The GI50 [16] was 50.2 µM (inactive), the GI50 [17] was 44.5 µM (inactive) and the GI50 [18] was > 100 µM (inactive). The GI50 [19] was > 100 µM (inactive), the GI50 [20] was > 100 µM (inactive) and the GI50 [21] was 46.8 µM (inactive). The GI50 [22] was 11.9 µM (inactive), the GI50 [23] was > 100 µM (inactive) and the GI50 [24] was > 100 µM (inactive). For the same molecule, the GI50 [25] was > 100 µM (inactive), the GI50 [26] was 49.7 µM (inactive) and the GI50 [27] was 30.1 µM (inactive). For the same molecule, the GI50 [28] was 86.5 µM (inactive), the GI50 [29] was 73.6 µM (inactive) and the GI50 [30] was 33.7 µM (inactive). For the same molecule, the GI50 [31] was 34.8 µM (inactive), the GI50 [32] was 75.5 µM (inactive) and the GI50 [33] was > 100 µM (inactive). For the same molecule, the GI50 [34] was > 100 µM (inactive), the GI50 [35] was 17.2 µM (inactive) and the GI50 [36] was > 100 µM (inactive). For the same molecule, the GI50 [37] was 49 µM (inactive), the GI50 [38] was 35.6 µM (inactive) and the GI50 [39] was 43.9 µM (inactive). The GI50 [40] was > 100 µM (inactive), the GI50 [41] was > 100 µM (inactive) and the GI50 [42] was 42.8 µM (inactive). For the same molecule, the GI50 [43] was 97.5 µM (inactive), the GI50 [44] was 68.1 µM (inactive) and the GI50 [45] was 28.2 µM (inactive). For the same molecule, the GI50 [46] was > 100 µM (inactive), the GI50 [47] was 68.4 µM (inactive) and the GI50 [48] was 30.4 µM (inactive). For the same molecule, the GI50 [49] was 12.5 µM (inactive) and the GI50 [50] was 20 µM (inactive).

In the case of Cc1ccccc1Nc1cn(COCc2ccccc2)c(=O)[nH]c1=O, the GI50 [1] was 52.4 µM (inactive), the GI50 [2] was 50.9 µM (inactive) and the GI50 [4] was 80.4 µM (inactive). For the same molecule, the GI50 [5] was > 100 µM (inactive), the GI50 [6] was > 100 µM (inactive) and the GI50 [7] was > 100 µM (inactive). For the same molecule, the GI50 [8] was greater than 100 µM, the GI50 [9] was 39.5 µM (inactive) and the GI50 [10] was > 100 µM (inactive). For the same molecule, the GI50 [11] was > 100 µM (inactive), the GI50 [12] was 81.3 µM (inactive) and the GI50 [51] was 59.8 µM (inactive). For the same molecule, the GI50 [52] was 54.3 µM (inactive), the GI50 [53] was 79.8 µM (inactive) and the GI50 [13] was 70.6 µM (inactive). For the same molecule, the GI50 [14] was > 100 µM (inactive), the GI50 [15] was > 100 µM (inactive) and the GI50 [16] was 33 µM (inactive). For the same molecule, the GI50 [17] was 40.2 µM (inactive), the GI50 [18] was 30.7 µM (inactive) and the GI50 [20] was 38.4 µM (inactive). For the same molecule, the GI50 [54] was 91.6 µM (inactive), the GI50 [21] was > 100 µM (inactive) and the GI50 [22] was 49.7 µM (inactive). For the same molecule, the GI50 [24] was > 100 µM (inactive), the GI50 [25] was > 100 µM (inactive) and the GI50 [26] was > 100 µM (inactive). For the same molecule, the GI50 [27] was > 100 µM (inactive), the GI50 [28] was > 100 µM (inactive) and the GI50 [29] was 48.5 µM (inactive). For the same molecule, the GI50 [30] was > 100 µM (inactive), the GI50 [31] was > 100 µM (inactive) and the GI50 [32] was > 100 µM (inactive). The GI50 [33] was > 100 µM (inactive), the GI50 [35] was > 100 µM (inactive) and the GI50 [36] was 69.5 µM (inactive). The GI50 [37] was 40.2 µM (inactive), the GI50 [38] was > 100 µM (inactive) and the GI50 [55] was > 100 µM (inactive). For the same molecule, the GI50 [39] was > 100 µM (inactive), the GI50 [40] was 14.5 µM (inactive) and the GI50 [41] was > 100 µM (inactive). For the same molecule, the GI50 [43] was 56.5 µM (inactive), the GI50 [45] was 57.5 µM (inactive) and the GI50 [46] was 55.2 µM (inactive). The GI50 [47] was 75.2 µM (inactive), the GI50 [48] was 55 µM (inactive) and the GI50 [49] was 85.3 µM (inactive).

With NC(N)=NCCC(O)(P(=O)(O)O)P(=O)(O)O the GI50 [1] was > 100 µM (inactive), the GI50 [2] was > 100 µM (inactive) and the GI50 [3] was > 100 µM (inactive). The GI50 [4] was > 100 µM (inactive), the GI50 [5] was 46.9 µM (inactive) and the GI50 [7] was > 100 µM (inactive). For the same molecule, the GI50 [8] was greater than 100 µM, the GI50 [10] was > 100 µM (inactive) and the GI50 [11] was > 100 µM (inactive). The GI50 [12] was > 100 µM (inactive), the GI50 [51] was > 100 µM (inactive) and the GI50 [52] was 15 µM (inactive). The GI50 [53] was > 100 µM (inactive), the GI50 [13] was > 100 µM (inactive) and the GI50 [14] was > 100 µM (inactive). The GI50 [16] was > 100 µM (inactive), the GI50 [17] was > 100 µM (inactive) and the GI50 [18] was > 100 µM (inactive). The GI50 [19] was > 100 µM (inactive), the GI50 [20] was > 100 µM (inactive) and the GI50 [22] was > 100 µM (inactive). For the same molecule, the GI50 [24] was > 100 µM (inactive), the GI50 [27] was > 100 µM (inactive) and the GI50 [30] was > 100 µM (inactive). The GI50 [31] was > 100 µM (inactive), the GI50 [32] was > 100 µM (inactive) and the GI50 [34] was > 100 µM (inactive). For the same molecule, the GI50 [35] was > 100 µM (inactive), the GI50 [36] was > 100 µM (inactive) and the GI50 [37] was > 100 µM (inactive). The GI50 [39] was > 100 µM (inactive), the GI50 [40] was > 100 µM (inactive) and the GI50 [41] was > 100 µM (inactive). The GI50 [43] was > 100 µM (inactive), the GI50 [44] was > 100 µM (inactive) and the GI50 [45] was > 100 µM (inactive). For the same molecule, the GI50 [56] was > 100 µM (inactive), the GI50 [47] was > 100 µM (inactive) and the GI50 [48] was > 100 µM (inactive). The GI50 [50] was > 100 µM (inactive).

COc1cc(CNc2nc3cc(N)cc(N)c3nc2-c2ccccc2)cc(OC)c1 was tested, and the GI50 [21] was 2.2 µM (inactive) and the GI50 [32] was 26.1 µM (inactive).
